Tested on: cynomolgus monkeys (Macaca fascicularis)
Assay: Study III: once-weekly Nal-Glu GnRH-antagonist plus 12 days of norgestimate, three treatment cycles
Type: in vivo
Method: STUDY III. In this study, which is reported in more detail in Contraception, June, 1990, Vol. 31, No. 6, pp. 623-631, six regularly cycling adult female cynomolgus monkeys (Macaca fascicularis) were housed in individual cages in a controlled environment and checked daily for menstrual flow. Each primate underwent a study entry control menstrual cycle in which alternate day blood samples were taken (under ketamine anesthesia, 10 mg/kg, im) to verify maturation of the dominant follicle, presumed ovulation, and corpus luteum function. The experimental design is depicted in FIG. 1. On menstrual cycle days 2, 9, 16, and 23 (onset of menses =Day 1) three of the monkeys were injected sc with 0.1 mg/kg GnRH-antagonist ([Ac-D2 Nal^1, 4ClDPhe^2, D3 Pal^3, Arg^5,DGlu^6 (AA), DAla^10 ]- GnRH; Nal-Glu) in saline. This dose was selected based on dose-response findings reported in Fertil Seril 1987; 48:480-485. On cycle days 15 to 26, each female was administered 25 μg norgestimate/day orally. This treatment regimen (once-weekly GnRH-antagonist plus 12 days of progestin) was repeated for 2 additional cycles (84 days total). Two of the treated monkeys were ovariectomized at the end of the third treatment cycle to evaluate ovarian follicular morphology. […] Three control monkeys received saline injections and blank (progestin placebo) capsules according to the same regimen. Serum samples were assayed by RIA for estradiol, progesterone, LH, and FSH.

Molecule | transformation of endometrium (sequential norgestimate, histological sections on day 26) | completion of follicular maturation, ovulation and corpus luteum function (0.1 mg/kg sc on cycle days 2, 9, 16, 23, judged by serum LH, E2 and P levels) | LH surges or serum progesterone rises (during the intermittent regimen) | serum progesterone (during the treatment cycles)
C#C[C@]1(OC(C)=O)CC[C@H]2[C@@H]3CCC4=CC(=NO)CC[C@@H]4[C@H]3CC[C@@]21CC (mixture of isomers) [norgestimate] | effectively transformed proliferative to secretory endometrium |  |  | 
[Ac-D2 Nal^1, 4ClDPhe^2, D3 Pal^3, Arg^5,DGlu^6 (AA), DAla^10 ]- GnRH [Nal-Glu] |  | effectively blocked | NO LH surges or serum progesterone rises were detected | < 0.1 ng/mL

From US5116818A, “Method and kit for contraception with GnRH-antagonist” (Medical College of Hampton Roads, priority 1990, dated 1992)
